For the first experiment, the target named is T1, human CB2 receptor (Homo sapiens, UniProt P34972).
T1 construct: beta-galactosidase fragment (the cell line's name says 'bgal'; own knowledge: PathHunter enzyme-fragment-complementation lines carry a small beta-gal fragment fused to the receptor's C-terminus); host or cells: CHO-K1 (CHOK1hCB2_bgal), membranes
T1 sequence (P34972 whole entry, the tested form may be a part): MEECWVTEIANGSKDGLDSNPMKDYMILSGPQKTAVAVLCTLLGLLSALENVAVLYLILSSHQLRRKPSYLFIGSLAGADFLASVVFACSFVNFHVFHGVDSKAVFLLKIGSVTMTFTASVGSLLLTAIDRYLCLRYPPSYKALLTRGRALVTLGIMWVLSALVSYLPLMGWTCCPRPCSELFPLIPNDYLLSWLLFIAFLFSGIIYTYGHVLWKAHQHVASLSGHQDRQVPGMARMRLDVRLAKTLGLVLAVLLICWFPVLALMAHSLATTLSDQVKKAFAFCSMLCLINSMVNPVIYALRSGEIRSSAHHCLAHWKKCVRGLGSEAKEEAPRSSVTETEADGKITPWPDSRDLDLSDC
Put plainly: [3H]CP55940 displacement assay. It counts as binding. The settings on record: 10 μM of the compound; [3H]CP55940, CHOK1hCB2_bgal membranes. As for the experimental part:
CHOK1hCB2_bgal cells (DiscoverRx, Fremont, CA, USA) were cultured in Dulbecco’s Modified Eagle’s Medium/Nutrient Mixture F-12 Ham supplemented with 10% fetal calf serum, 1 mM glutamine, 50 µg/mL penicillin, 50 µg/mL streptomycin, […] hygromycin and 800 µg/mL geneticin in a humidified atmosphere at 37 °C and 5% CO2. Cells were subcultured twice a week at a ratio of 1:20 on 10-cm diameter plates by trypsinization. For membrane preparation, the cells were subcultured with a ratio of 1:10 and transferred to 15-cm diameter plates. The cells were collected by scraping in 5 mL phosphate-buffered saline (PBS) and centrifuged at 1000 g for 5 min. Pellets derived from 30 plates were combined and resuspended in 20 mL cold Tris–HCl, MgCl2 buffer (50 mM Tris–HCl (pH 7.4), 5 mM MgCl2). The cell suspension was homogenized using an UltraTurrax homogenizer (Heidolph Instruments Schwabach, Germany). Membranes and cytosolic fractions were separated by centrifugation in a Beckman Optima LE-80 K ultracentrifuge (Beckman Coulter Inc., Fullerton, CA, USA) at 100,000 g for 20 min at 4 °C. The supernatant was discarded. The pellet was resuspended in 10 mL cold Tris–HCl, MgCl2 buffer and homogenization and centrifugation steps were repeated. The membranes were resuspended in 10 mL cold Tris–HCl, MgCl2 buffer. Aliquots of 50 µL were stored at -80 °C until further use. The protein concentration was determined using the Pierce™ BCA Protein Assay Kit (ThermoFisher Scientific, Waltham, MA, USA).
At first, all compounds were tested at a final concentration of 10 µM. […] Six different concentrations of the compounds were added by an HP D300 digital dispenser (Tecan Group Ltd, Männedorf, Switzerland). In order to determine the total binding, a control without test compound was included. Nonspecific binding was determined in the presence of 10 µM AM630. The total assay volume was 100 µL. The final concentration of DMSO was ≤ 0.25%. The incubation was terminated by rapid vacuum filtration through GF/C 96-well filter plates (PerkinElmer, Waltham, MA), to separate the bound and free radioligand, using a PerkinElmer Filtermate-harvester (PerkinElmer, Groningen, The Netherlands). Filters were subsequently washed […] with ice-cold assay buffer. The filter-bound radioactivity was determined by scintillation spectrometry using a Microbeta2® 2450 microplate counter (PerkinElmer, Boston, MA), after addition of 25 μl MicroScint 20 (PerkinElmer, Groningen, The Netherlands) and 3 h incubation.
All experimental data were analyzed using GraphPad Prism 7 [36]. The data were normalized to percentage specific radioligand binding, where the total binding is 100% and nonspecific binding is 0%. […] All data were obtained from three separate experiments performed in duplicate.
Turning to `CCn1cc(C(=O)NCC2(N3CCOCC3)CCCCC2)c(=O)c2ccc(C)nc21` [Z27019562], the “% displacement of the radioligand” value was 30%.
As for `Cc1nn(-c2ccccc2)c2sc(C(=O)NC34CC5CC(CC(C5)C3)C4)cc12` [Z27687279], the “% displacement of the radioligand” value is on record as 38%.
For the compound `CC1(C)C2CCC1(C)C(NC(=O)C1CCN(S(=O)(=O)c3ccc(F)c(F)c3)CC1)C2` (centres unmarked) [Z28357392], the “% displacement of the radioligand” value is reported as 26%.
Turning to `CCC(NC(=O)c1cccc(S(=O)(=O)N2CCOCC2)c1)C12CC3CC(CC(C3)C1)C2` (centres unmarked) [Z28609248], the “% displacement of the radioligand” value worked out at 16%.
On the same count and under the same terms, under `CC1(C)C2CC=C(/C=N/NC(=O)CCc3ccc(S(=O)(=O)N4CCOCC4)cc3)C1C2` (centres unmarked) [Z44867007] stands 0%; under `COc1ccc(C=C(C(=O)NC2CCCCC2)C(=O)NC2CCCCC2)cc1OC` [Z46091805], 38%; under `CCN(CC)c1ccc(S(=O)(=O)N2CCOCC2)cc1NS(=O)(=O)CC12CCC(CC1=O)C2(C)C` (centres unmarked) [Z55473655], 7%.
For the compound `CCC(C)(C)C1CCC(NC(=O)c2cc(S(=O)(=O)N3CCOCC3)ccc2C)CC1` (centres unmarked) [Z91179667], the “% displacement of the radioligand” value is on record as 29%.
Same read-out and setting: under `CC(C)C(NC(=O)CN1CCN(c2nccn2C)CC1)c1ccc2c(c1)OCCCO2` (centres unmarked) [Z1317886912] stands 3%; under `CC1(CN2CCOCC2)CCN(CC(=O)N2CCc3sccc3C2)CC1` [Z1523102560], 18%.
On to `COc1ccc2c(c1)c(C(=O)N(C)CC(C)OC)c(C)n2C1CC1` (centres unmarked) [Z2094674960], for which the “% displacement of the radioligand” value came out at 0%.

Staying with this experiment, now noted: [3H]CP55940 (~1.5 nM) displacement, CHOK1hCB2_bgal membranes, 25 °C, 2 h; three separate experiments in duplicate.
As for `Cc1ccc(NC(=O)C2CCC(C(C)(C)C)CC2)cc1S(=O)(=O)N1CCOCC1` (centres unmarked) [Z26476746], the “pKi ± SEM” value amounted to 6.54 ± 0.14.
As for `CCOC(=O)c1c(NC(=O)CC23CC4CC(CC(C4)C2)C3)sc2c1CCCC2` [Z27680708], the “pKi ± SEM” value was found to be 7.46 ± 0.32.
On the same count and under the same terms, for `Cc1ccc(C(=O)NC23CC4CC(CC(C4)C2)C3)cc1S(=O)(=O)N1CCCCC1` [Z27687312] the value was 7.22 ± 0.46; for `CCCCn1nc(C(=O)NC2CC3CCC2(C)C3(C)C)c2ccccc2c1=O` (centres unmarked) [Z28357657], 6.81 ± 0.29; for `Cc1ccc(C(=O)NC2CCCC(C)C2C)cc1S(=O)(=O)N1CCOCC1` (centres unmarked) [Z32934509], 6.47 ± 0.02.
Consider `CCc1ccc(C(=O)NC(C)C23CC4CC(CC(C4)C2)C3)cc1S(=O)(=O)N1CCOCC1` (centres unmarked) [Z336532434], for which the “pKi ± SEM” value amounted to 7.67 ± 0.17.
